Test results taken from patent US11013725B2, “Therapeutic agents for inner ear hearing impairment” (Keio University, priority 2015, dated 2021).

Columns and labels:
[1] = test system: inner ear cells derived from iPS cells of patients with Pendred syndrome; test: Apoptosis under epoxomicin cellular stress (Cleaved caspase 3 staining of pendrin-positive cells); type: cell-based, human
Description: Pendrin-positive cells were induced from iPS cells derived from patients and iPS/ES cells derived from healthy subjects using the above method. The differentiation-induced cells were subjected to the following treatment. In the rapamycin administration group, rapamycin was administered for 3 days. In the cellular stress/rapamycin group, rapamycin (0.2 nM) was administered for 2 days and then epoxomicin (0.5 μM) was administered as cellular stress for 24 hours along with rapamycin. In the cellular stress group, DMSO was administered for 2 days and then only epoxomicin (0.5 μM) was administered as cellular stress for 24 hours. For fluorescent antibody staining, goat anti-pendrin antibody and rabbit anti-Cleaved Caspase 3 antibody were added (1:100 and 1:300, respectively) to the fixed cells on glass slides after antigen retrieval. Cell nuclei were then stained with Hoechst 33258 (diluted 1:1000). […] Pendrin-positive cells were induced from iPS cells derived from patients and iPS/ES cells derived from healthy subjects using the above method. The differentiation-induced cells were subjected to the following. In the rapamycin administration group, rapamycin was administered for 3 days. In the cellular stress/rapamycin group, rapamycin (0.2 nM) was administered for 2 days and then epoxomicin (0.5 μM) was administered as cellular stress for 24 hours along with rapamycin. In the cellular stress group, DMSO was administered for 2 days and then only epoxomicin (0.5 μM) was administered as cellular stress for 24 hours. […] For fluorescent antibody staining, goat anti-pendrin antibody and rabbit anti-Cleaved Caspase 3 antibody were added (1:100 and 1:300, respectively) to the fixed cells on glass slides after antigen retrieval. Cell nuclei were then stained with Hoechst 33258 (diluted 1:1000). […] Pendrin-positive cells were induced from iPS cells derived from patients and iPS/ES cells derived from healthy subjects using the above method. The differentiation-induced cells were subjected to the following treatment. In the calpeptin administration group, calpeptin was administered for 3 days. […]

[2] = test system: inner ear cells derived from iPS cells of patients with Pendred syndrome; test: Measurement of cell viability under epoxomicin cellular stress (count of cells positive for pendrin but negative for Cleaved caspase 3); type: cell-based, human
Description: Pendrin-positive cells were induced from iPS cells derived from patients and iPS/ES cells derived from healthy subjects using the above method. The differentiation-induced cells were subjected to the following treatment. In the rapamycin administration group, rapamycin was administered for 3 days. In the cellular stress/rapamycin group, rapamycin (0.2 nM) was administered for 2 days and then epoxomicin (0.5 μM) was administered as cellular stress for 24 hours along with rapamycin. In the cellular stress group, DMSO was administered for 2 days and then only epoxomicin (0.5 μM) was administered as cellular stress for 24 hours. For fluorescent antibody staining, goat anti-pendrin antibody and rabbit anti-Cleaved Caspase 3 antibody were added (1:100 and 1:300, respectively) to the fixed cells on glass slides after antigen retrieval. Cell nuclei were then stained with Hoechst 33258 (diluted 1:1000). […] Pendrin-positive cells were induced from iPS cells derived from patients and iPS/ES cells derived from healthy subjects using the above method. The differentiation-induced cells were subjected to the following treatment. In the rapamycin administration group, rapamycin was administered for 3 days. In the cellular stress/rapamycin group, rapamycin (0.2 nM) was administered for 2 days and then epoxomicin (0.5 μM) was administered as cellular stress for 24 hours along with rapamycin. […]

[3] = test system: differentiation-induced inner ear sensory epithelial cells; test: Administration of gentamicin to differentiation-induced inner ear sensory epithelial cells (cytotoxicity, number of cells); type: cell-based, human; details: gentamicin injection diluted 80 times, administered for 10 days; FIG. 7
Description: (1-5) Administration of Gentamicin Known to Have Inner Ear Toxicity to Differentiation-Induced Inner Ear Sensory Epithelial Cells
A gentamicin injection diluted 80 times was administered for 10 days to the inner ear sensory epithelial cells whose differentiation had been induced using this method.

neurons = details: stated as known; cited from earlier work

**Q.** Which “apoptosis when cells are stressed” value ([1]; 1 mM or 10 mM metformin for 2 days, then epoxomicin 0.5 μM for 24 hours along with metformin, FIG. 13) does the source give for `CN(C)C(=N)NC(=N)N` [metformin] here?
**A.** The value was “inhibits apoptosis”.

**Q.** What about the “decrease in the cell viability when cells are stressed” value ([2]; 1 mM or 10 mM metformin for 2 days, then epoxomicin 0.5 μM for 24 hours along with metformin, FIG. 12) of the same molecule?
**A.** Its value is “suppresses the decrease in the cell viability”.

**Q.** Which “apoptosis when cells are stressed (cells positive for pendrin and Cleaved caspase 3)” value ([1]; rapamycin 0.2 nM for 2 days, then epoxomicin 0.5 μM for 24 hours along with rapamycin, FIG. 11) does the source give for `CO[C@H]1C[C@@H]2CC[C@@H](C)[C@@](O)(O2)C(=O)C(=O)N2CCCC[C@H]2C(=O)O[C@H]([C@H](C)C[C@@H]2CC[C@@H](O)[C@H](OC)C2)CC(=O)[C@H](C)/C=C(\C)[C@@H](O)[C@@H](OC)C(=O)[C@H](C)C[C@H](C)/C=C/C=C/C=C/1C` [rapamycin] here?
**A.** The value was “inhibits such apoptosis”.

**Q.** And the “decrease in cell viabilities when cells are stressed” value ([2]; rapamycin 0.2 nM for 2 days, then epoxomicin 0.5 μM for 24 hours along with rapamycin, FIG. 10)?
**A.** The value was “suppresses decrease in cell viabilities”.

**Q.** With gentamicin as the molecule, how does the “number of cells as compared with a control group (cytotoxicity)” value [3] read?
**A.** The value was “significantly decreased”.

**Q.** For `CCCC[C@@H](C=O)NC(=O)[C@H](CC(C)C)NC(=O)OCc1ccccc1` [Calpeptin], which “apoptosis when cells are stressed” value ([1]; calpeptin 0.5 nM for 2 days, then epoxomicin 0.5 μM for 24 hours along with calpeptin, FIG. 14, reference example) is on record?
**A.** The value was “cannot inhibit apoptosis”.

**Q.** What about the “apoptosis of neurons in neurodegenerative diseases and the like” value (neurons) of the same molecule?
**A.** Its value is “known to inhibit apoptosis of neurons”.
